Here are results for seven compounds from patent US6855308B2, “PACAP compositions and methods for tumor imaging and therapy” (Thomas Jefferson University, priority 2001, dated 2005).

One data set concerns breast tumors. As to the kind of experiment: tumor uptake in tumor-bearing mice. The following applies: 24 hr post-injection.
A short description of another data set: in vivo. Conditions: nude, mouse, iv, total radioactivity.
Another data set concerns T47D xenografts. As to the kind of experiment: receptor blocking study with PACAP in tumor-bearing mice. Conditions: PACAP pre-injected; nude mice with T47D xenografts. The format is in vivo. On the procedure: In order to determine receptor specificity of […] in human breast tumors, receptor blocking studies with PACAP were performed. In nude mice with T47D xenografts, ^99mTc-TP 3475 tumor uptake was reduced by approximately 50% when PACAP was pre-injected.

Data set [1] is classed as physicochemical. On the procedure:
For the metallization reaction, the vial contents were allowed to come to ambient temperature, and 10-40 mCi ^99mTc in 200 μl 0.9% NaCl was injected into the vial. The mixture was incubated at 100° C. for 30 min, and the pH of the reaction mixture was raised to 6-6.5 by addition of 1 ml 0.1 M Na2HPO4. One-hundred twenty-five mg of Na-ascorbate was added as a stabilizing agent. […] The yields at 22° C. are quantitative as determined by HPLC, producing a single peak at Rt. 12.5 min.

Details of data set [2]: species or system Sprague-Dawley rats. The following applies: rat, in vivo, iv. On the procedure: The blood clearance of ^99mTc-TP 3475 was studied in Sprague-Dawley rats as follows. Three Sprague Dawley rats, each weighing approximately 250 grams, were injected through one lateral tail vein with one mCi of ^99mTc-TP 3475, and serial blood samples were drawn in triplicate through the other lateral tail vein at 1, 5, 10, 15, and 30 minutes post-injection, and at 1, 2, 4, 6, 18 and 24 hours post injection. The blood samples were weighed, and radioactivity was counted against a standard ^99mTc solution prepared at the time of injection using standard scintillation counting techniques. The % ID/g plotted as a function of time.

For data set [3] the following is noted: reduced from 100 for PACAP27; cited from earlier work.
Data set [4] has as its system PACAP, VIP-R1 and VIP-R2 receptors. The following applies: cited from earlier work.
The test system of the next data set is normal lung membrane. Conditions: cited from earlier work.
The subject of another data set is primary breast cancers. Conditions: cited from earlier work.
In data set [5] the test system is internal anal sphincter (IAS) smooth muscle. As to the kind of experiment: basal tension of opossum internal anal sphincter (IAS) smooth muscle. Details: species or system opossum (Didelphis virginiana). Conditions: 10^−5 M concentration. The method, then:
PACAP27 is known to cause a concentration-dependent fall in the basal tension of IAS, by the assay described in Rattan S et al., J. Pharmcol. Exper. Thera. 263: 722-728, 1997, the entire disclosure of which is herein incorporated by reference. This IAS assay was performed with increasing concentrations of TP 3475 until a maximum fall is reached, essentially as described below. PACAP27 was used as a control.
[…]. The large blood vessels and extraneous tissues including the external […] were removed, and the anal canal was opened and pinned flat with the mucosal side up on a dissecting tray containing oxygenated Krebs' solution (NaCl, 118.07; KCl, 4.69; CaCl2, 2.52; MgS04, 1.16; NaH2PO4, 1.01; NaHC03, 25; and glucose, 11.10). The mucosa was removed, and internal anal sphincter circular smooth muscle strips (approximately 2 mm×1 cm) were prepared from the lowermost part of the anal canal.
Measurement of isometric tension—The IAS smooth muscle strips were transferred to temperature-controlled 2 ml “muscle baths” containing Krebs' solution, bubbled continuously with a mixture of 95% O2-5% CO2. […] Isometric tensions were recorded on a Beckman Dynograph recorder (Beckman Instruments, Schiller Park, Ill.). […] Both optimal length and base-line were determined as described in Rattan S et al., 1997, supra.

In a further data set the test system is adenylate cyclase. Conditions: pituitary cells; cited from earlier work.

“Also recorded” adds a separate entry of the source. Ends that are not written are not given here. * marks the point of attachment. DTPA = O=C(O)CN(CCN(CC(=O)O)CC(=O)O)CCN(CC(=O)O)CC(=O)* Bounds are passed on as bounds.

Method for breast tumors: (§1) Approximately 5×10^6 viable cells from either tumor cell line are implanted in the right thigh of each mouse, and tumors are allowed to form. […] Animals are sacrificed at 15 min, 1 hr, 2 hr, 4 hr and 24 hr post-injection, and % of ID/g tissue is determined in all tissues. A control group of tumor-bearing mice is injected with PACAP27 mono-iodinated with ^125I. […] All animals are imaged using a GE STARCAM gamma camera equipped with a dedicated computer and a low energy parallel hole collimator.
(§2) The co-injected ^99mTc-TP 3475 and ^111In-DTPA-D-Phe^1-Octreotide in the mouse tissues were counted by using the characteristic energy windows for their respective radionuclides (±15 or 20%); e.g., 140 KeV for ^99mTc, and 173 KeV and 247 KeV for ^111In. The ^111In counts in the tissues were again determined when ^99mTc was completely decayed (e.g., 10-12 half-lives).
Method for in vivo: as §1, §2

Regarding `[C-]#[N+]CC(C)(C)OC.[C-]#[N+]CC(C)(C)OC.[C-]#[N+]CC(C)(C)OC.[C-]#[N+]CC(C)(C)OC.[C-]#[N+]CC(C)(C)OC.[C-]#[N+]CC(C)(C)OC.[Tc]` [^99mTc-Sesta-MIBI], the tumor uptake with breast tumors came out at 0.18±0.0 % ID/g.

In general, tissue uptake refers to the percentage of the injected dose found per gram of tissue. In the case of `CC[C@H](C)[C@H](NC(=O)CNC(=O)[C@H](CC(=O)O)NC(=O)[C@H](CO)NC(=O)[C@@H](N)Cc1c[nH]cn1)C(=O)N[C@@H](Cc1ccccc1)C(=O)N[C@H](C(=O)N[C@@H](CC(=O)O)C(=O)N[C@@H](CO)C(=O)N[C@@H](Cc1ccc(O)cc1)C(=O)N[C@@H](CO)C(=O)N[C@@H](CCCNC(=N)N)C(=O)N[C@@H](Cc1ccc(O)cc1)C(=O)N[C@@H](CCCNC(=N)N)C(=O)N[C@@H](CCCCN)C(=O)N[C@@H](CCC(N)=O)C(=O)N[C@@H](CCSC)C(=O)N[C@@H](C)C(=O)N[C@H](C(=O)N[C@@H](CCCCN)C(=O)N[C@@H](CCCCN)C(=O)N[C@@H](Cc1ccc(O)cc1)C(=O)N[C@@H](CC(C)C)C(=O)N[C@@H](C)C(=O)N[C@@H](C)C(=O)N[C@H](C(=O)N[C@@H](CC(C)C)C(=O)NCCCC(=O)NCC(=O)N[C@H](C)C(=O)NCC(=O)NCC(=O)O)C(C)C)C(C)C)[C@@H](C)O` [^99mTc-TP 3475, metal not drawn], the tissue uptake at 24 h in “in vivo” was roughly 0.2 %ID/g. Also, the “reduction of tumor uptake” value in the data set with T47D xenografts was “approximately 50%”. In addition, the stability result in data set [1] is “stable for 24 hr”. In data set [2] (Sprague-Dawley), the “blood clearance α-t½” value is “approximately 6 min” and the “blood clearance β-t½” value is on record as “approximately 90 min”. Also, in data set [2], the “time in which 75% of the radioactivity is cleared from the circulation” value is on record as “about 12 minutes”.

Take “PACAP27 linked to DTPA at its N-terminus: PACAP27 linked to DTPA at its N-terminus (Reubi et al. 1997) ({DTPA}-HSDGIFTDSYSRYRKQMAVKKYLAAVL; ends and bridges not checked; UniProt P18509 132-158, looked up)”: the biological activity in data set [3] is listed as less than 0.01.

As usually defined, the IC50 is the point on the concentration scale where inhibition reaches its midpoint. Turning to “VIP28: 28-amino acid vasoactive intestinal peptide”, the receptor binding affinity result in data set [4] was “binds with high affinity only to VIP-R1 and VIP-R2 receptors”. For the same compound, in the data set on normal lung membrane, the IC50 was roughly 15 nM.

On to `C[C@@H](O)[C@@H]1NC(=O)[C@H](CCCCN)NC(=O)[C@@H](Cc2c[nH]c3ccccc23)NC(=O)[C@H](Cc2ccccc2)NC(=O)[C@@H](NC(=O)[C@@H](Cc2ccccc2)NC(=O)CN(CCN(CCN(CC(=O)O)CC(=O)O)CC(=O)O)CC(=O)O)CSSC[C@@H](C(=O)N[C@H](CO)[C@@H](C)O)NC1=O` [^111In-DTPA-D-Phe^1-Octreotide, metal not drawn], for which the tissue uptake at 24 h in “in vivo” is 0.09 ± 0.01 %ID/g. In the data set with primary breast cancers (52 primary breast cancers), the positive scintigraphy is on record as 75%. Also, in the data set on primary breast cancers (patients with histologically-proven metastases), the “patients in whom imaging of axillae detected non-palpable, cancer-containing lymph nodes” value is on record as 4 of 13.

“TP 3475: PACAP27 linked via a C-terminal Aba spacer to a Gly-(D)Ala-Gly-Gly chelating agent; SEQ ID NO: 5 (HSDGIFTDSYSRYRKQMAVKKYLAAVLXGAGG; C-terminal Aba spacer, Gly-(D)Ala-Gly-Gly chelator; PACAP analog TP 3475)”: in data set [5], the “% fall in IAS tension” value is on record as “equivalent fall in IAS tension; also recorded: equal”.

Consider HSDGIFTDSYSRYRKQMAVKKYLAAVL [PACAP27], for which, in the data set with adenylate cyclase, the “potency in stimulating adenylate cyclase relative to VIP28” value is “ten times more potent”. Moreover, in [5], the “% fall in IAS tension” value was “equivalent fall in IAS tension; also recorded: equal”. The receptor binding affinity entry in data set [4] is “binds with high affinity to PACAP, VIP-R1 and VIP-R2 receptors”. The concentration for half-maximal inhibition (IC50) in the data set with normal lung membrane was roughly 1.5 nM.
